# According to US20120328713A1, “Articles of Manufacture with Improved Anti-microbial Properties” (priority 2009, published 2012):
# Legend:
# [1] = test system: P. aeruginosa ATCC 27853; test: Silver (III) periodate efficacy testing in the presence of Cl-, SO4 2-, and PO4 3-; assay type: cell-based; conditions: water, 1% NaCl, 1% K2SO4 and 1% K2HPO4 solutions; challenge time 30 minutes; tested 1.5-200 ppm
# Procedure: Silver (III) periodate was tested for efficacy in water, 1% NaCl, 1% K2SO4, and 1% K2HPO4 solutions, and compared with silver nitrate. The test solutions were tested against P. aeruginosa ATCC 27853. The challenge time was 30 minutes. Silver (III) periodate and silver nitrate were tested at range of 1.5-200 ppm.
# [2] = test system: relevant clinical pathogens in biofilm form (Pseudomonas aeruginosa, MRSA, MRSE, Acinetobacter baumanii, Listeria monocytogenes, VRE, Escherichia coli, Candida …); test: MBEC efficacy testing against relevant clinical pathogens in saline; assay type: cell-based; conditions: challenge time 4 hours, 2000 ppm to 15.62 ppm
# Procedure: The antimicrobial effect of silver (III) periodate and silver nitrate (2000 ppm to 15.62 ppm) in saline was tested against Pseudomonas aeruginosa, Staphylococcus aureus (MRSA), Staphylococcus epidermidis (MRSE), Acinetobacter baumanii, Listeria monocytogenes, Enterococcus faecalis (VRE), Escherichia coli, Candida albicans, Klebsiella pneumonia, Enterobacter aerongenes. The challenge time was 4 hours.
# [3] = test system: Candida albicans ATCC 28367; test: MBEC P&G assay in dilutions of human serum; assay type: cell-based
# Procedure: (§1) The effects of silver (III) periodate and silver nitrate were tested in different dilutions of human serum (0.001%, 0.01%, 0.1%, 1%, 10%, 50%) using the MBECTM P&G assay against relevant clinical human pathogens Escherichia coli, Staphylococcus aureus (MRSA), and Candida albicans. The challenge time was 4 hours. The tested concentration range for the silver compounds was 500 to 7.8 ppm.
# [4] = test system: Escherichia coli ATCC 25922; test: MBEC P&G assay in dilutions of human serum; assay type: cell-based
# Procedure: as §1
# [5] = test system: Staphylococcus aureus (MRSA) 456; test: MBEC P&G assay in dilutions of human serum; assay type: cell-based
# Procedure: as §1
# [6] = test system: Escherichia coli (ATCC 25922); test: MBEC P&G assay in dilutions of urine; assay type: cell-based
# Procedure: (§2) The effects of silver (III) periodate and silver nitrate in different dilutions of urine (0.001%, 0.01%, 0.1%, 1%, 10%, 50%) using the MBEC™ P&G assay were tested against Escherichia coli (ATCC 25922)The challenge time was 4 hours. The tested concentration range for both silver compounds was 500 to 7.8 ppm.
# [7] = test system: Escherichia coli (ATCC 25922); test: MBEC P&G assay in dilutions of feces; assay type: cell-based
# Procedure: The challenge time was 4 hours. The tested concentration range for both silver compounds was 500 to 7.8 ppm.
# [8] = test system: Escherichia coli (ATCC 25922); test: MBEC P&G assay in dilutions of mucin; assay type: cell-based
# Procedure: as §2, with “mucin (2.0%, 1.0%, 0.5%, 0.25%, 0.12%, 0.06%) were tested” for “urine (0.001%, 0.01%, 0.1%, 1%, 10%, 50%)”, “assay” for “assay were tested”
# [9] = test system: bacterial speck (Pseudomonas syringae pv. tomato); test: Field trial, foliar spray against bacterial speck in tomatoes (Example 18); assay type: in vivo, tomatoes (Lycopersicon esculentum); conditions: after three treatment sprays
# [10] = test system: bacterial canker (Clavibacter michiganensis pv. michiganensis); test: Field trial, foliar spray against bacterial canker in tomatoes (Example 19); assay type: in vivo, tomatoes (Lycopersicon esculentum)
# Procedure: Silver (III) periodate was tested as a bactericidal foliar spray treatment against bacterial canker (Clavibacter michiganensis pv. michiganensis) in tomatoes (Lycopersicon esculentum).
# See Example 18 for Preparation of Tomato Seed; Preparation of Field; Seeding; Plot Maintenance; Preparation of Spray Treatment Solutions and Inoculum; Spray Treatment Procedure; and Data Collection.
# [11] = test system: bacterial speck; test: Field trial, foliar spray against bacterial speck in tomato (Example 22); assay type: in vivo; conditions: compared with the standard Kocide and Kocide+Dithane
# Procedure: Silver (III) periodate was tested as a foliar spray treatment fungicide against bacterial speck in tomato.
# See Example 22 for Preparation of Tomato Seed; Preparation of Field; Seeding; Plot Maintenance; Preparation of Spray Treatment Solutions and Inoculum; Spray Treatment Procedure; and Data Collection.
# The treatments compared were water (control), oxysilver nitrate, silver (III) periodate, Dithane, Kocide 2000, Dithane DG 75+Kocide 2000, oxysilver nitrate+Dithane, and silver (III) periodate+Dithane, Serenade Max, and Serenade Max+oxysilver nitrate.
# [12] = test system: alternaria leaf blight (Alternaria brassicicola); test: Field trial, foliar spray against alternaria leaf blight in cauliflower and broccoli (Example 23); assay type: in vivo
# Procedure: (§3) Silver (III) periodate was tested as a fungicidal foliar spray treatment against alternaria leaf blight (Alternaria brassicicola) and downy mildew (Peronospora paratsitica Lui) in cauliflower (Brassica oleracea var. botrytis) and broccoli (Brassica oleracea […]), respectively.
# Preparation of Seed, Preparation of Field, Seeding, Plot Maintenance: Two trials were conducted in organic soil (pH ≈7.2, organic matter ≈47.2%). Cauliflower and broccoli were seeded into 128-cell Plastomer plug trays in early June and hand transplanted in early July in two rows, 86 cm apart and 9 meter in length, with an in-row spacing of 40 cm. A randomized complete block arrangement with four replicates per treatment was used. Treatments were applied in July and August using a CO2 backpack sprayer equipped with 4 TeeJet D-2 hollow cone nozzles spaced 40 cm apart and calibrated to deliver 250 L/ha at 240 kPa.
# This was immediately followed by irrigation to achieve leaf wetness. The plots were treated prior to inoculation.
# Preparation of Spray Treatment Solutions and Inoculum: The treatment rate for silver (III) periodate was 0.16 kg/ha. It was also combined (at this rate) with Bravo, which was delivered at 2.5L/ha.
# Data Collection: Plants were monitored weekly to determine when lesions were first observed. Plants (15 per rep, randomly selected and marked for continued assessment) were assessed twice during the growing season for number of lesions per leaf. As heads mature, 15 heads per rep in total were harvested and assessed from each experimental unit. The number of Alternaria le sions per leaf were counted. Healthy leaves were counted and trimmed head weights were recorded to indicate marketable yield.
# Treatments compared were oxysilver nitrate, silver (III) periodate, Bravo, Bravo+oxysilver nitrate, Bravo+silver (III) periodate, and water (control).
# [13] = test system: downy mildew (Peronospora paratsitica Lui); test: Field trial, foliar spray against downy mildew (Example 24); assay type: in vivo; conditions: compared with the check
# Procedure: as §3
# See Example 23 for Preparation of Tomato Seed; Preparation of Field; Seeding; Plot Maintenance; Preparation of Spray Treatment Solutions and Inoculum; Spray Treatment Procedure; and Data Collection.
structure (smiles),measurement,setting,value
"[Ag+3].[Na+].[Na+].[Na+].[Na+].[Na+].[O-][I+]([O-])([O-])([O-])([O-])O.[O-][I+]([O-])([O-])([O-])([O-])O [silver (III) periodate, sodium diperiodatoargentate]",effective concentration,[1],1.73 ppm
same,MBEC (minimum biofilm eradication concentration) killing activity,[2],higher killing activity than silver nitrate against most of the tested strains
same,log reduction,"[3]; 0.1%, 0.01%, 0.001% human serum, concentrations higher than 125 ppm",higher log reductions
same,log reduction,"[3]; 10% and 1% human serum, 31.25-125 ppm",Log reductions were higher
same,log reduction compared with silver nitrate,"[4]; 0.1% and 0.01% human serum, low tested concentrations",lower log reduction than silver nitrate
same,difference in log reduction over silver nitrate,"[4]; 50% and 10% human serum, even at concentrations as low as 7.8 ppm",1.5-2.0 log reduction
same,"log reduction, trend with compound concentration","[4]; human serum dilutions, in general, 4 hours, 500 to 7.8 ppm",log reductions decreased with the decrease in concentrations of silver (III) periodate
same,log reduction compared with the other compound,"[5]; 0.001% human serum, 31.25-125 ppm",higher log reductions
same,killing activity,[5]; 0.1% and 0.01% human serum,no significant killing activity
same,"killing activity, silver (III) periodate vs silver nitrate",[5]; high concentrations of human serum,no significant differences
same,MBC cut-off point,[6]; 10% urine,31.25 ppm
same,MBC cut-off point,[6]; 100% urine,250 ppm
same,log reduction,"[6]; 500 and 250 ppm, all tested concentrations of urine",approximately equal log reductions
same,log reduction compared with the other compound,[6]; compound concentrations of 125 ppm and below,larger log reduction at the lower and middle concentrations
same,compound concentration giving the highest log reduction,"[6]; concentrations at 125 ppm and below, urine",62.5 ppm
same,"MBC, effective level",[7]; 1.56% feces,> 15.6 ppm
same,"MBEC, effective level",[7]; 1.56% feces,125 ppm
same,"MBC, effective level",[7]; 3.13% feces,> 31.25 ppm
same,"MBEC, effective level",[7]; 3.13% feces,250 ppm
same,"MBC, effective level",[7]; 6.25% feces,> 62.5 ppm
same,"MBEC, effective level",[7]; 6.25% feces,125 ppm
same,"MBC, effective level",[7]; 12.5% feces,> 62.5 ppm
same,"MBC, effective level",[7]; 25% feces,higher than 125 ppm
same,"MBC, effective level",[7]; 50% feces,higher than 125 ppm
same,"MBEC, effective level","[7]; concentrations of feces higher than 12.5%, ineffective at highest tested concentration",> 500 ppm
same,"log reduction, trend with compound concentration",[8]; higher concentrations of mucin,log reduction decreased with a decrease in concentration of silver (III) periodate
same,effectiveness compared with the other compound,[8]; higher concentrations of mucin (2% and 1%),more effective than silver nitrate
same,"log reduction, trend with compound concentration","[8]; lower concentrations of mucin (0.25%, 0.12% and 0.06%)",log reduction was relatively unaffected by the changes in concentration
same,effectiveness compared with the other compound,"[8]; mucin 0.5%, 0.25%, 0.12% and 0.06%, lower compound concentrations",more effective than the lower tested concentrations of silver nitrate
same,disease severity on foliage,[9],best at reducing disease severity on foliage
same,disease severity on foliage,[10]; after three treatment sprays,best at reducing disease severity on foliage
same,disease severity on foliage,[10]; after two treatment sprays,best at reducing disease severity on foliage
same,levels of bacterial speck (number of infected leaves) or disease severity ratings,[11],did not have statistically different levels
same,harvest weights,[12]; broccoli,higher harvest weights (not significant)
same,Alternaria lesions per leaf,"[12]; compared with the check, broccoli",significantly lower Alternaria lesions per leaf than the check
same,Alternaria lesions per leaf,"[12]; second result paragraph, crop not given",higher Alternaria lesions per leaf than the check and other treatments
same,downy mildew severity indexes,[13],significantly lower downy mildew severity indexes than the check
